Assay results reported in patent US20060211725A1, “Use” (Astellas Pharma Inc., priority 2002, published 2006).
“Also recorded” adds a separate entry of the source.

How the values were obtained:
[1] = tested on: antibody against F344 rat glomeruli basement membrane protein; assay: ELISA of plasma antibody against donor GBM (Example 1); format: in vivo; conditions: near days 20, 40, 90
Method: Inbred male Lewis rats (LEW) (RT1^I), weighing 250-300 g, were used as kidney transplantation recipients. Inbred male LEW and Fisher (F344) (RT1^IvI), weighing 250-350 g, were used as isograft and allograft donor rats, respectively. Kidney transplantation was performed using the modified technique of Fisher and Lee. [Fisher et al., Surgery, 58:904-914, 1965] Survival of kidney transplant was measured as time of recipient rat survival. Blood and 24 hr urine samples were collected once a week for plasma creatinine, proteinuria, and the measurement of antibody titer against donor glomeruli basement membrane protein (GBM). Kidney grafts were harvested on the 90th day posttranspalantation and subjected to histology and reverse transcriptase-polymerase chain reaction (RT-PCR) analysis. The compound (I), at doses of 10 mg/kg and 20 mg/kg were administered orally to recipient rats daily from day 0 to day 9 after transplantation. Control isograft and allograft recipients received no drug after transplantation.
Specific antibody against F344 rat glomeruli basement membrane protein in plasma from LEW recipients with F344 kidneys were also measured in the isograft, untreated allograft and allograft treated with the compound (I) at doses of 10 mg/kg and 20 mg/kg near days 20, 40, and 90 after transplantation by using ELISA assay.

TGFβ gene expression = assay: RT-PCR for TGFβ gene expression in kidney graft (Example 1); format: in vivo, rat; conditions: 10 and 20 mg/kg PO day 0-9; day 90 after grafting; vs untreated allograft control
Method: Inbred male Lewis rats (LEW) (RT1^I), weighing 250-300 g, were used as kidney transplantation recipients. Inbred male LEW and Fisher (F344) (RT1^IvI), weighing 250-350 g, were used as isograft and allograft donor rats, respectively. Kidney transplantation was performed using the modified technique of Fisher and Lee. [Fisher et al., Surgery, 58:904-914, 1965] Survival of kidney transplant was measured as time of recipient rat survival. Blood and 24 hr urine samples were collected once a week for plasma creatinine, proteinuria, and the measurement of antibody titer against donor glomeruli basement membrane protein (GBM). Kidney grafts were harvested on the 90th day posttranspalantation and subjected to histology and reverse transcriptase-polymerase chain reaction (RT-PCR) analysis. The compound (I), at doses of 10 mg/kg and 20 mg/kg were administered orally to recipient rats daily from day 0 to day 9 after transplantation. Control isograft and allograft recipients received no drug after transplantation. TGFβ has been considered to play a crucial role for causing chronic allograft rejection. Kidney graft tissues harvested from recipients on day 90th after transplantation were subjected to RT-PCR for TGFβ gene expression. Total RNA was extracted from transplanted kidney tissues by TRIZOL. […]

[2] = tested on: F344 kidney allograft in LEW recipient rats; assay: Recipient kidney function under rescue treatment of chronic rejection (Example 3); format: in vivo, rat
Method: (§1) The rats and kidney transplantation methods described in Example 1 were used. […] The isograft and untreated allograft served as control groups. Blood and urine samples were collected once a week from recipients with kidney grafts described in Example 1 for measuring their plasma creatinine and proteinuria. Plasma creatinine was tested by Sigma Creatinine Kit and proteinuria by Bio-Rad Protein assay.

[3] = tested on: F344 kidney allograft in LEW recipient rats; assay: Recipient kidney function, treatment with brief tacrolimus (Example 4); format: in vivo, rat
Method: The rats and kidney transplantation methods described in Example 1 were used. Tacrolimus at dose of 1 mg/kg from day 0 to day 9 after transplantation, and the compound (I) at doses of 10 mg/kg and 15 mg/kg from day 28 today 60 after transplantation were administered orally to recipient rats. In this study LEW recipients were briefly treated with oral tacrolimus at 1 mg/kg/day for 10 days after transplantation to avoid acute rejection and slow chronic rejection that gradually destroys the F344 kidney graft, resulting in functional and histological changes similar to the chronic rejection in human. The isograft, untreated allograft and allograft treated with tacrolimus 1 mg/kg for 10 days alone served as control groups. Blood and urine samples were collected once a week from recipients with kidney grafts described in Example 1 for measuring their plasma creatinine and proteinuria. Plasma creatinine was tested by Sigma Creatinine Kit and proteinuria by Bio-Rad Protein assay.

[4] = tested on: F344 kidney allograft in LEW recipient rats; assay: Kidney graft histology under rescue treatment, modified Banff criteria (Example 3); format: in vivo, rat
Method: as §1
Using the methods described in Example 1, histological changes of chronic allograft rejection under rescue treatment of the compound (I) were analyzed. Histological sections were blindly evaluated by two histologists and scored semiquantitatively based on modified Banff' criteria for transplant pathology.

[5] = rescue 20 mg/kg PO for 3 weeks from onset of raised creatinine or proteinuria, after drug discontinued
[6] = 20 mg/kg for 3 weeks during ongoing chronic rejection, vs untreated allograft control
[7] = rescue, From day 40-70 (20 mg/kg for 3 weeks), one line per rat

In the case of `C#CCC/C(O)=C(\C#N)C(=O)Nc1ccc(C(F)(F)F)cc1` [Compound (I), (2Z)-2-cyano-3-hydroxy-N-[4-(trifluoromethyl)phenyl]-2-hepten-6-ynamide], the “production of antibody against donor GBM in plasma” value ([1]; 10 mg/kg PO day 0-9) is reported as “a trend of reduced production of antibody against donor GBM”, the “production of antibody against donor GBM in plasma” value ([1]; 20 mg/kg PO day 0-9) is reported as “a trend of reduced production of antibody against donor GBM” and the “TGFβ gene expression (mRNA) in kidney graft” value (TGFβ gene expression) is reported as “inhibited TGFβ gene expression in a dose-dependent manner”. For the same molecule, the plasma creatinine [2, 5] was “tended to be at a normal level”, the proteinuria [2, 5] was “tended to be at a normal level” and the recipient kidney function ([2]; rescue 20 mg/kg PO for 3 weeks, immediate effect) was “did not show an immediate improvement”. The proteinuria ([3]; Compound (I) 10 mg/kg day 28 to 60 after brief tacrolimus 1 mg/kg day 0-9) was “decreased the progression of proteinuria”, the plasma creatinine level ([3]; Compound (I) 10 mg/kg day 28 to 60 after brief tacrolimus 1 mg/kg day 0-9, entire study period) was under 1.5 mg/dL and the proteinuria ([3]; Compound (I) 15 mg/kg day 28 to 60 after brief tacrolimus 1 mg/kg day 0-9) was “decreased the progression of proteinuria”. For the same molecule, the plasma creatinine ([3]; Compound (I) 15 mg/kg/day day 28 to 60 after brief tacrolimus, increased from week 3 to week 9) was “it was reversed and maintained in a normal level”, the “approximate cumulative reduction in Banff score: fibro-intimal hyperplasia” value [4, 6] was about 53% and the “approximate cumulative reduction in Banff score: glomerulitis” value [4, 6] was about 38%. For the same molecule, the “approximate cumulative reduction in Banff score: interstitial inflammation” value [4, 6] was about 50%, the “approximate cumulative reduction in Banff score: mesangiolysis” value [4, 6] was about 33% and the “approximate cumulative reduction in Banff score: transplant glomerulopathy” value [4, 6] was about 89%. For the same molecule, the “approximate cumulative reduction in Banff score: tubular atrophy” value [4, 6] was about 42%, the “approximate cumulative reduction in Banff score: tubulitis” value [4, 6] was about 70% and the “approximate cumulative reduction in Banff score: vasculitis” value [4, 6] was about 92%. For the same molecule, the “Banff grade: Fibro-intimal Hyperplasia” value [4, 7] was “++ ((++):Grade 2, Moderate); also recorded: − ((−):Grade 0, Normal)”, the “Banff grade: Glomerulitis” value [4, 7] was “+ ((+):Grade 1, Mild); also recorded: − ((−):Grade 0, Normal); also recorded: ++ ((++):Grade 2, Moderate)” and the “Banff grade: Glomerulosclerosis” value [4, 7] was “− ((−):Grade 0, Normal); also recorded: + ((+):Grade 1, Mild)”. The “Banff grade: Inflammation” value [4, 7] was “+ ((+):Grade 1, Mild); also recorded: ++ ((++):Grade 2, Moderate)”, the “Banff grade: Mesangiolysis” value [4, 7] was “− ((−):Grade 0, Normal); also recorded: + ((+):Grade 1, Mild)” and the “Banff grade: Transplant Glomerulopathy” value [4, 7] was “− ((−):Grade 0, Normal); also recorded: + ((+):Grade 1, Mild)”. The “Banff grade: Tubular Atrophy” value [4, 7] was “− ((−):Grade 0, Normal); also recorded: + ((+):Grade 1, Mild)”, the “Banff grade: Tubulitis” value [4, 7] was “− ((−):Grade 0, Normal)” and the “Banff grade: Vasculitis” value [4, 7] was “+++ ((+++):Grade 3, Severe); also recorded: + ((+):Grade 1, Mild)”.
